In brackets after ≈: the same amount, converted by molar mass.
system: Staphylococcus aureus; assay: Antibacterial activity against gram-positive Staphylococcus aureus MTCC 96 after 24 hrs by agar well diffusion method; type: functional; details: MTCC 96, 24 h

Structure (SMILES) | MIC [mg/L]
CCOC(=O)c1c(N2CCN(C(=O)OC(C)(C)C)CC2)c2ccccc2n(CC)c1=O | 3.9 (≈ 9.08 µM)
CCOC(=O)c1c(N2CCN(c3cccc(OC)c3)CC2)c2ccccc2n(CC)c1=O | 3.9 (≈ 8.95 µM)
CCOC(=O)c1c(N2CCN(c3ccccc3OC)CC2)c2ccccc2n(C)c1=O | 3.9 (≈ 9.25 µM)
CCOC(=O)c1c(N2CCN(c3ccc(F)cc3)CC2)c2ccccc2n(C)c1=O | 3.9 (≈ 9.52 µM)

system: Micrococcus luteus; assay: Antibacterial activity against gram-positive Micrococcus luteus MTCC 2470 after 24 hrs by agar well diffusion method; type: functional; details: MTCC 2470, 24 h

Structure (SMILES) | MIC [mg/L]
CCOC(=O)c1c(N2CCCC2)c2ccccc2n(CC)c1=O | 7.8 (≈ 24.8 µM)
CCOC(=O)c1c(N2CCN(c3cccc(OC)c3)CC2)c2ccccc2n(CC)c1=O | 7.8 (≈ 17.9 µM)

system: Candida albicans; assay: Antifungal activity against Candida albicans MTCC 3017 after 24 hrs by agar well diffusion method; type: functional; details: MTCC 3017, 24 h

Structure (SMILES) | MIC [mg/L]
Clc1ccc(COC(Cn2ccnc2)c2ccc(Cl)cc2Cl)c(Cl)c1 (configuration not stated) [MICONAZOLE] | 7.8 (≈ 18.7 µM)
CCOC(=O)c1c(N2CCN(c3ccc(F)cc3)CC2)c2ccccc2n(C)c1=O | 7.8 (≈ 19 µM)
CCOC(=O)c1c(N2CCN(c3ccccc3C(F)(F)F)CC2)c2ccccc2n(C)c1=O | 7.8 (≈ 17 µM)

system: Staphylococcus aureus; assay: Bactericidal activity against gram-positive Staphylococcus aureus MTCC 96 incubated for 24 hrs followed by microbial sample growth at Mueller Hinton agar plates; type: functional; details: MTCC 96, 24 h

Structure (SMILES) | MBC [mg/L]
CCOC(=O)c1c(N2CCN(C(=O)OC(C)(C)C)CC2)c2ccccc2n(CC)c1=O | 7.8 (≈ 18.2 µM)
CCOC(=O)c1c(N2CCN(c3cccc(OC)c3)CC2)c2ccccc2n(CC)c1=O | 7.8 (≈ 17.9 µM)
CCOC(=O)c1c(N2CCN(c3ccccc3OC)CC2)c2ccccc2n(C)c1=O | 7.8 (≈ 18.5 µM)
CCOC(=O)c1c(N2CCN(c3ccc(F)cc3)CC2)c2ccccc2n(C)c1=O | 7.8 (≈ 19 µM)

system: Micrococcus luteus; assay: Bactericidal activity against gram-positive Micrococcus luteus MTCC 2470 incubated for 24 hrs followed by microbial sample growth at Mueller Hinton agar plates; type: functional; details: MTCC 2470, 24 h

Structure (SMILES) | MBC [mg/L]
CCOC(=O)c1c(N2CCCC2)c2ccccc2n(CC)c1=O | 15.6 (≈ 49.6 µM)
CCOC(=O)c1c(N2CCN(c3cccc(OC)c3)CC2)c2ccccc2n(CC)c1=O | 15.6 (≈ 35.8 µM)

system: Candida albicans; assay: Fungicidal activity against Candida albicans MTCC 3017 incubated for 24 hrs followed by microbial sample growth Sabouraud dextrose agar plates; type: functional; details: MTCC 3017, 24 h

Structure (SMILES) | MFC [mg/L]
Clc1ccc(COC(Cn2ccnc2)c2ccc(Cl)cc2Cl)c(Cl)c1 (configuration not stated) [MICONAZOLE] | 7.8 (≈ 18.7 µM)
CCOC(=O)c1c(N2CCN(c3ccc(F)cc3)CC2)c2ccccc2n(C)c1=O | 15.6 (≈ 38.1 µM)
CCOC(=O)c1c(N2CCN(c3ccccc3C(F)(F)F)CC2)c2ccccc2n(C)c1=O | 15.6 (≈ 34 µM)

molecular target: T1, 4,4'-diapophytoene synthase (Staphylococcus aureus, UniProt A9JQL9); assay: Inhibition of Staphylococcus aureus dehydrosqualene synthase; details: not given
T1 sequence (A9JQL9 whole entry): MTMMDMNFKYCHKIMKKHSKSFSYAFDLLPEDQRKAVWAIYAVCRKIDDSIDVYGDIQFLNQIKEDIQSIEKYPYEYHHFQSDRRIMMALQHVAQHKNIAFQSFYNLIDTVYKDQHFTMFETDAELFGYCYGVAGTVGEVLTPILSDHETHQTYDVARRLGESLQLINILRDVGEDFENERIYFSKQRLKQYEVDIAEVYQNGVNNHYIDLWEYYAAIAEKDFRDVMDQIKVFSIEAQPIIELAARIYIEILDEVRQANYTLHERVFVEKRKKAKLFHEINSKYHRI

Structure (SMILES) | Ki [µM]
CCOC(=O)c1c(N2CCN(C(=O)OC(C)(C)C)CC2)c2ccccc2n(CC)c1=O | 20.2
CCOC(=O)c1c(N2CCN(c3cccc(OC)c3)CC2)c2ccccc2n(CC)c1=O | 15.7
CCOC(=O)c1c(N2CCN(c3ccccc3OC)CC2)c2ccccc2n(C)c1=O | 19.8
CCOC(=O)c1c(N2CCN(c3ccc(F)cc3)CC2)c2ccccc2n(C)c1=O | 1.26

— ChEMBL document CHEMBL4219137, “A novel templates of piperazinyl-1,2-dihydroquinoline-3-carboxylates: Synthesis, anti-microbial evaluation and molecular docking studies” (Bioorg Med Chem Lett, 2018)
